Measured values as given in patent US8846567B2, “Active compound combinations having insecticidal and acaricidal properties” (priority 2009, dated 2014).
Read-outs that look alike come from different tables or passages of the source.

Tests used:
Format in all cases: in vivo
Spodoptera frugiperda = Spodoptera frugiperda test (sprayed cabbage leaves); details: single active compound
Text: The expected action for a given combination of two active compounds can be calculated according to S. R. Colby, Weeds 15 (1967), 20-22, as follows:
(§1) If the actual insecticidal or acaricidal kill rate exceeds the calculated value, the kill of the combination is superadditive, i.e. a synergistic effect is present. In this case, the actually observed kill rate must exceed the value calculated using the above formula for the expected kill rate (E).
(§2) • Solvents: 78 parts by weight of acetone 1.5 parts by weight of dimethylformamide • Emulsifier: 0.5 part by weight of alkylaryl polyglycol ether
To produce a suitable preparation of active compound, 1 part by weight of active compound is mixed with the stated amount of solvent and emulsifier, and the concentrate is diluted with emulsifier-containing water to the desired concentration.
Cabbage leaves (Brassica oleracea) are treated by being sprayed with the preparation of active compound of the desired concentration and are populated with larvae of the armyworm (Spodoptera frugiperda) while the leaves are still moist.
After the desired period of time, the kill in % is determined 100% means that all caterpillars have been killed; 0% means that none of the caterpillars have been killed. The kill rates determined are entered into Colby's formula (see above).

Myzus persicae = details: 0.8 g/ha, single active compound
Text: as §1, §2
After the desired period of time, the kill in % is determined 100% means that all of the aphids have been killed; 0% means that none of the aphids have been killed. The kill rates determined are entered into Colby's formula (see above).

Phaedon cochleariae = tested on: Phaedon cochleariae
Text: as §1, §2
After the desired period of time, the kill in % is determined 100% means that all beetle larvae have been killed; 0% means that none of the beetle larvae have been killed. The kill rates determined are entered into Colby's formula (see above).

[1] = 20 g/ha, single active compound
[2] = 20 g/ha, after 6 d, single active compound
[3] = 100 g/ha, after 6 d, single active compound
[4] = 4 g/ha, after 6 d, single active compound

Compound | Kill in % after 6 d (Spodoptera frugiperda; 4 g/ha) | Kill in % after 6 d (Spodoptera frugiperda; 20 g/ha) | Kill in % after 6 d (Myzus persicae) | Kill In % after 2d (Phaedon cochleariae; [1]) | Kill In % after 6d (Phaedon cochleariae; [2]) | Kill In % after 2d (Phaedon cochleariae; 4 g/ha, single active compound) | Kill In % after 6d (Phaedon cochleariae; [3]) | other results
CN(Cc1cnc(Cl)c(F)c1)C1=CC(=O)OC1 [compound (I-6), 4-{[(6-chloro-5-fluoropyrid-3-yl)methyl](methyl)amino}furan-2(5H)-one] | 0% | 0% | 80% | 0% | 17% |  |  | 
methiocarb |  |  | 0% |  |  | 17% |  | 
CCOP(=S)(OCC)Oc1nc(Cl)c(Cl)cc1Cl [chlorpyriphos, chlorpyrifos] | 67% |  |  | 50% |  | 0% |  | 
CS/C(C)=N/OC(=O)N(C)SN(C)C(=O)O/N=C(\C)SC [thiodicarb] | 50% | 83% | 0% |  | 0% |  | 0% | Kill in % after 1d (Myzus persicae): 0%
CCOP(=O)(NC(C)C)Oc1ccc(SC)c(C)c1 (stereo not drawn) [fenamiphos] |  |  | 0% |  |  |  |  | 
COP(N)(=O)SC (stereo not drawn) [methamidophos] |  | 67% | 0% |  |  |  |  | 
COP(=O)(NC(C)=O)SC (stereo not drawn) [acephate] |  |  | 0% |  | 0% |  | 0% | 
O=C1C=C(N(CCF)Cc2ccc(Cl)nc2)CO1 [compound (I-4), 4-{[(6-chloropyrid-3-yl)methyl](2-fluoroethyl)amino}furan-2(5H)-one] |  | 0% |  |  |  | 0% | 50% | Kill in % after 1d (Myzus persicae): 20%; Kill In % after 6d (Phaedon cochleariae; [4]): 0%; Kill In % after 2d (Phaedon cochleariae; 100 g/ha, single active compound): 50%
O=C1C=C(N(Cc2ccc(Cl)nc2)CC(F)F)CO1 [compound (I-5), 4-{[(6-chloropyrid-3-yl)methyl](2,2-difluoroethyl)amino}furan-2(5H)-one] | 0% |  |  | 17% |  |  | 67% | Kill In % after 6d (Phaedon cochleariae; [4]): 0%
CCCSP(=O)(OCC)SCCC [ethoprofos, ethoprophos] |  |  |  |  |  |  |  | Kill In % after 6d (Phaedon cochleariae; in vivo): 0%
